Where two headings read alike, the source gives them in different places.

Test [1] concerns the target T1, phosphodiesterase 4 (PDE4), PDE4A1A (Homo sapiens, UniProt P27815).
T1 construct: purchased BSP Bioscience 60340
Briefly: PDE4A1A Assay Kit, fluorescence polarization. Type of test: biochemical. Here is the method: Inhibition of PDE4 blocks hydrolysis of cAMP, thereby increasing levels of cAMP. The PDE4A1A Assay Kit is designed for identification of PDE4A1A inhibitors using fluorescence polarization. The assay is based on the binding of fluorescent AMP generated by PDE4A1A to the binding agent.
The assay was performed according to the protocol of the PDE4A1A assay provided by BSP Bioscience [BSP Bioscience, Data sheet PDE4A1A Assay Kit, Catalog #60340].
(§1) A fluorescence plate reader (Appliskan, Thermo Scientific) was used to detect fluorescence emission signals according to the following parameters:
(§2) Selected alkaloids of the invention prepared in example 1 were tested in 5 times dilutions to establish the 50% inhibitory concentration (IC-50).
For orientation: Polarisation of emitted light reports the rotation of a fluorescent probe.

In another test the target is T2, IkappaB kinase β (IKK-β) (Homo sapiens, UniProt O14920).
T2 construct: purchased Invitrogen
T2 sequence (O14920 1-756): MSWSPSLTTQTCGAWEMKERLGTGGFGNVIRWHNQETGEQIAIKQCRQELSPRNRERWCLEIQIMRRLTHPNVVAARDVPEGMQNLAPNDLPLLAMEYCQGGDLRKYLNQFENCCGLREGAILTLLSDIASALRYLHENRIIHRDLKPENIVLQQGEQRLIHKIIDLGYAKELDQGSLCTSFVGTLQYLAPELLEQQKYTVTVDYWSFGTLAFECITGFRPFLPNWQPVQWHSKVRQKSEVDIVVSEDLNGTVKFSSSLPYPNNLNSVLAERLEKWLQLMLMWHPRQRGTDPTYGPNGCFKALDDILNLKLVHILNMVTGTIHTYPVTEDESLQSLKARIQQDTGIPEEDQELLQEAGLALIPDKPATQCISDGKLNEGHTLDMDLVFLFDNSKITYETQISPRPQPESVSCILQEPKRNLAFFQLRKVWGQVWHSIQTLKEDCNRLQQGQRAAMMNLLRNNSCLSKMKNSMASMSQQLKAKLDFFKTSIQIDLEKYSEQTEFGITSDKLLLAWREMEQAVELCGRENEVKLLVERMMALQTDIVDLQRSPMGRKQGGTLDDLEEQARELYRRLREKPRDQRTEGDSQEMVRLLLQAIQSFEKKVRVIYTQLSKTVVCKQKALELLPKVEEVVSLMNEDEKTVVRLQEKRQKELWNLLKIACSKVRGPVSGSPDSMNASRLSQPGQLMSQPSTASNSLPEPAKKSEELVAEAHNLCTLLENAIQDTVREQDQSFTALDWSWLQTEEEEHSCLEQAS
Nature of the test: IKK-β inhibition, Z'-LYTE Kinase Assay Kit Ser/Thr 5 Peptide (FRET). Type of test: biochemical. Here is the method:
IKK-β phosphorylates the inhibitory IκB protein associated with NF-κB. Phosphorylation results in the dissociation of IκB from NF-κB, allowing NF-κB to migrate into the cell nucleus where it can activate the transcription of at least 150 genes. The Z9-LYTE™ Kinase Assay Kit—Ser/Thr 5 Peptide is designed to screen for potential IKK-β inhibitory effect using fluorescence resonance energy transfer (FRET) between coumarin and fluorescein for detection by a fluorometer.
The assay was performed according to Z9-LYTE™ KINASE ASSAY KIT—SER/THR 5 PEPTIDE protocol provided by Invitrogen [Invitrogen, Z′-LYTE™ Kinase Assay Kit—Ser/Thr 5 Peptide Protocol, O-062187-r1 US 0405]. Based on the IKK-β certificate of the kit, a kinase concentration of 500 ng/ml was chosen. Km for ATP 9.4 μM was chosen according to an optimization for the LanthaScreen™ kinase assay [http://tools.invitrogen.com/content/sfs/manuals/IKBKB_%28IKK_beta %29_LanthaScreen_Activity.pdf].
as §1, §2

For test [2], the target named is T3, phosphodiesterase 5A (PDE5) (Homo sapiens, UniProt O76074).
T3 construct: purchased BSP Bioscience 60350
Briefly: PDE5A Assay Kit, fluorescence polarization. In kind it is biochemical. Here is the method: Inhibition of PDE5 blocks hydrolysis of cGMP, thereby increasing levels of cGMP. The PDE5A Assay Kit is designed for identification of PDE5A inhibitors using fluorescence polarization. The assay is based on the binding of a fluorescent nucleotide monophosphate generated by PDE5A to the binding agent.
The assay was performed according to the protocol of the PDE5A assay provided by BSP Bioscience [BSP Bioscience, Data sheet PDE5A Assay Kit, Catalog #60350].
as §1, §2

Test [3] has as its system hyperlipidemic guinea pigs. Briefly: Hypocholesterolemic effect in hyperlipidemic guinea pigs induced by high fat diet. Type of test: in vivo, guinea pig. To be noted: 10 mg/kg oral once daily, 28 days. Here is the method: Male Dunkin-Hartley guinea pigs weighing 300+/−30 g were acclimated one week before the in-life phase of the experiment. The study diet (Research Diets Inc, New Brunswick, N.J., USA) contained 15% corn oil and 0.25% cholesterol. A daily oral dose of 2000 mg/kg of RAP2 corresponding 9 μg/kg of Ribetril A and 82 μg/kg total Ribetrils as well as 632 μg/kg total Glucoindols was administered orally at a dosing volume of 10 mL/kg. A daily oral dose of 2000 mg/kg of RAP4 corresponding to 112 μg/kg of Ribetril A and 492 μg/kg total Ribetrils as well as 240 μg/kg total Glucoindols was administered orally at a dosing volume of 10 mL/kg. The positive control atorvastatin (10 mg/kg) and vehicle (0.5% methylcellulose) were each administered orally at a dosing volume of 10 mL/kg. […]
After fasting overnight, blood samples were obtained from the retro-orbital sinus of each animal 5 min before initial test substance and/or vehicle administration (pre-treatment) and 24 hours after dosing on days 14 and 28 (post-treatment). The serum total cholesterol (TC), low density lipoprotein cholesterol (LDL-C), high density lipoprotein cholesterol (HDL-C) and triglycerides (TG) were determined by an enzymatic method (Wako total cholesterol, LDL-C, HDL-C & TG diagnostic kit and Toshiba Automatic Analyzer Model TAB-120FR).

The test system of test [4] is BKS Cg-Lepr db/Lepr db mice. Nature of the test: Hypoglycemic effect in BKS Cg-Lepr db/Lepr db mice (NIDDM model). In kind it is in vivo, mouse. To be noted: 300 mg/kg oral daily, day 14 post dosing. Here is the method:
Male non-insulin dependent diabetic mellitus (NIDDM) mice (BKS Cg-Lepr db/Lepr db) weighing 50+/−5 g were used at age of 12-13 weeks. A daily oral dose of 2000 mg/kg of RAP4 corresponding to corresponding to 112 μg/kg of Ribetril A and 492 μg/kg total Ribetrils as well as 240 μg/kg total Glucoindols was administered orally at a dosing volume of 10 mL/kg to 12 animals for a total of 14 consecutive days. The positive control of metformin (300 mg/kg) and vehicle (2% Tween 80) were each administered orally at a dosing volume of 10 mL/kg to groups of 6 animals once daily for a total of 14 consecutive days. Serum glucose levels were measured by means of an automated analyzer (TBA-120FR, Toshiba) and serum insulin by ELISA at zero min (pre-treatment) on Day 1, and at 90 min after the daily dosing (post-treatment) on Day 7 and Day 14.

The mark [5] stands for this setting: read-out: Inhibitory effect on PDE4 IC-50.
Setting [6] is: read-out: Inhibitory effect on IKK-β IC-50.
Where [7] appears, read: read-out: Inhibitory effect on PDE5 IC-50.

T1 sequence (P27815 1-647 isoform P27815-4): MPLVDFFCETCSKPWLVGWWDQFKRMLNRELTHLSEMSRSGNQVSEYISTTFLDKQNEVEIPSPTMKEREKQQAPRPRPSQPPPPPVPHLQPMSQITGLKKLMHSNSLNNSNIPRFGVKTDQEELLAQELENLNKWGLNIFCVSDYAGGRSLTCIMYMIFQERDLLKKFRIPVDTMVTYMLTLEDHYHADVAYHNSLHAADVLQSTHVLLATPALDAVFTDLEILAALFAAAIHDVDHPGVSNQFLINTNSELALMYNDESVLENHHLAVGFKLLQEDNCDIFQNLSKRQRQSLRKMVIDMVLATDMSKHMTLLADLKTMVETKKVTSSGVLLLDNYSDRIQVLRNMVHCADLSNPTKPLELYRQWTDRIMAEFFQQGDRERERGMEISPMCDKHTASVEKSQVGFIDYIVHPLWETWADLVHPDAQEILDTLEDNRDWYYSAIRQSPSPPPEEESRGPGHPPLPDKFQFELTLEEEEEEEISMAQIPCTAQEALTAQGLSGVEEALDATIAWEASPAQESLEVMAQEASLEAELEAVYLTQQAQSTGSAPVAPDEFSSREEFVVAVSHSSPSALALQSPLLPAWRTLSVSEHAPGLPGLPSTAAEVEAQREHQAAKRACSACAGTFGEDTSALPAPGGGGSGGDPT

For the compound `O=C(O)Cc1cn([C@@H]2O[C@H](CO)[C@@H](O)[C@H](O)[C@H]2O)c2ccccc12` [Glucoindol A, 2-(1-((2R,3R,4S,5S,6R)-3,4,5-trihydroxy-6-(hydroxymethyl)tetrahydro-2H-pyran-2-yl)-1H-indol-3-yl)acetic acid], the IC50 in test [1] (setting [5]) turned out to be 86.1 µM.

Consider `COC(=O)Cc1cn([C@@H]2O[C@H](CO)[C@@H](O)[C@H](O)[C@H]2O)c2ccccc12` [Glucoindol B, methyl 2-(1-((2R,3R,4S,5S,6R)-3,4,5-trihydroxy-6-(hydroxymethyl)tetrahydro-2H-pyran-2-yl)-1H-indol-3-yl)acetate], for which the IC50 in test [1] (setting [5]) stood at 45.6 µM.

Turning to `N#C/C(=C\CO[C@@H]1O[C@H](CO)[C@@H](O)[C@H](O)[C@H]1O)COC(=O)/C=C/c1ccc(O)c(O)c1` [Ribetril A, (E)-(E)-2-cyano-4-(((2R,3R,4S,5S,6R)-3,4,5-trihydroxy-6-(hydroxymethyl)tetrahydro-2H-pyran-2-yl)oxy)but-2-en-1-yl 3-(3,4-dihydroxyphenyl)acrylate], the IC50 at IkappaB kinase β (IKK-β) (setting [6]) is 0.13 µM; in test [2] (setting [7]), 2.1 µM; in test [1] (setting [5]), 2.95 µM. For the same compound, the “times lower IC-50 as compared to Ribetril B (IKK-β)” value at IkappaB kinase β (IKK-β) (vs Ribetril B) was determined as 48 times. In addition, on IkappaB kinase β (IKK-β) (vs Ribetril C), the “times lower IC-50 as compared to Ribetril C (IKK-β)” value is listed as 118 times. Moreover, the “times lower IC-50 as compared to Ribetril B (PDE5)” value in test [2] (vs Ribetril B) was 3 times. Besides, the “times lower IC-50 as compared to Ribetril C (PDE5)” value in test [2] (vs Ribetril C) amounted to 8 times. Also, the “times lower IC-50 as compared to Ribetril B (PDE4)” value in test [1] (vs Ribetril B) is 5 times. Also, in test [1] (vs Ribetril C), the “times lower IC-50 as compared to Ribetril C (PDE4)” value came out at 20 times.

On to `COc1cc(/C=C/C(=O)OC/C(C#N)=C/CO[C@@H]2O[C@H](CO)[C@@H](O)[C@H](O)[C@H]2O)ccc1O` [Ribetril B, (E)-(E)-2-cyano-4-(beta-D-glucopyranosyloxy)but-2-en-1-yl 3-(4-hydroxy-3-methoxyphenyl)acrylate], for which the IC50 was found to be 6.3 µM at IkappaB kinase β (IKK-β) (setting [6]), 5.4 µM in test [2] (setting [7]) and 14 µM in test [1] (setting [5]).

In the case of `N#C/C(=C\CO[C@@H]1O[C@H](CO)[C@@H](O)[C@H](O)[C@H]1O)COC(=O)/C=C/c1ccc(O)cc1` [Ribetril C, (E)-(E)-2-cyano-4-(beta-D-glucopyranosyloxy)but-2-en-1-yl 3-(4-hydroxyphenyl)acrylate], the IC50 worked out at 15.3 µM on IkappaB kinase β (IKK-β) (setting [6]), 17.2 µM in test [2] (setting [7]) and 59.7 µM in test [1] (setting [5]).

For the compound `COc1cc(C(=O)OC/C(C#N)=C/CO[C@@H]2O[C@H](CO)[C@@H](O)[C@H](O)[C@H]2O)ccc1O` [Ribetril D, (E)-2-cyano-4-(beta-D-glucopyranosyloxy)but-2-en-1-yl 4-hydroxy-3-methoxybenzoate], the IC50 is 0.037 µM at IkappaB kinase β (IKK-β), less than 0.04 µM in test [2] and 0.23 µM in test [1].

For `N#C/C(=C\CO[C@@H]1O[C@H](CO)[C@@H](O)[C@H](O)[C@H]1O)COC(=O)c1ccc(O)cc1` [Ribetril E, (E)-2-cyano-4-(beta-D-glucopyranosyloxy)but-2-en-1-yl 4-hydroxybenzoate], the IC50 was found to be 1.9 µM at IkappaB kinase β (IKK-β) (setting [6]), 3.4 µM in test [2] (setting [7]) and 3.5 µM in test [1] (setting [5]).

Regarding `CC(C)c1c(C(=O)Nc2ccccc2)c(-c2ccccc2)c(-c2ccc(F)cc2)n1CC[C@@H](O)C[C@@H](O)CC(=O)O` [atorvastatin], in test [3], the “triglyceride reduction” value is “did not significantly reduce triglycerides”.

For `CN(C)C(=N)N=C(N)N` [metformin], the “serum glucose levels relative to vehicle control” value in test [4] was “significant decrease”.

For the origin of these results see patent US9023816B2, “Bioactive alkaloid compositions and their medical uses” (Asiros A/S, priority 2013, dated 2015).
